# Experimental data as given in patent US20170232083A1, “METHODS OF DIAGNOSIS AND TREATMENT OF CELIAC DISEASE IN CHILDREN” (priority 2014, published 2017).
# Tested on: PBMC (polyclonal gluten-specific T cells) of paediatric and adult CD patients
# Assay: IFN-γ ELISpot of PBMC after 3 day oral wheat challenge (SFU, % of maximal peptide response, dominance scores, EC50; Examples 5-6)
# Assay type: cell-based, human
# Settings: for IFN-γ ELISpot response: after oral wheat challenge; for Cross-reactive T cell response: following wheat challenge
# [1] = patient A, 11-17 yrs, cut-off 10 SFU
# [2] = patient E, H, 11-17 yrs, cut-off 10 SFU
# [3] = patient F, 11-17 yrs, cut-off 10 SFU
# [4] = patient G, 11-17 yrs, cut-off 10 SFU
# [5] = patient H (HLA-DQ2.5 homozygote), 3-5yrs, cut-off 10 SFU
# [6] = patient H, 11-17 yrs, cut-off 10 SFU
# [7] = patient ID not given, 11-17 yrs, cut-off 10 SFU
# [8] = patient ID not given, max peptide 95 SFU
# [9] = patient N, 3-5yrs, cut-off 10 SFU
# [10] = patient P, 11-17 yrs, cut-off 21.6 SFU
# [11] = patient Q, 11-17 yrs, cut-off 10 SFU
# [12] = patient U, H, 11-17 yrs, cut-off 10 SFU
# [13] = patient V, 6-10 yrs, cut-off 10 SFU
# [14] = patient Y, 6-10 yrs, cut-off 10 SFU
# [15] = patient eleven, 6-10 yrs, cut-off 10 SFU
# [16] = patient eleven, max peptide 57 SFU
# [17] = patient four, 3-5yrs, cut-off 10 SFU
# [18] = patient seven, 6-10 yrs, cut-off 10.5 SFU
# [19] = patient ten, 3-5yrs, cut-off 10 SFU
# [20] = patient ten, max peptide 14.5 SFU
# [21] = patient three, 6-10 yrs, cut-off 10.5 SFU
# [22] = patient twelve, 11-17 yrs, cut-off 10 SFU
# [23] = patient two, 3-5yrs, cut-off 10 SFU
sequence,measurement,setting,value
LQPFPQPELPYPQPQ,IFN-γ ELISpot response,[1],2.5 SFU
same,Significant response as percentage of maximal peptide SFU,"patient D, max peptide 30.5 SFU",+ (>70% = +)
same,IFN-γ ELISpot response,[2],152 SFU
same,Significant response as percentage of maximal peptide SFU,"patient E, max peptide 224 SFU",′′′ (41-70% = ′′′)
same,IFN-γ ELISpot response,[3],166.5 SFU
same,Significant response as percentage of maximal peptide SFU,"patient F, max peptide 178 SFU",+ (>70% = +)
same,IFN-γ ELISpot response,[4],10 SFU
same,Significant response as percentage of maximal peptide SFU,"patient G, max peptide 15 SFU",′′′ (41-70% = ′′′)
same,IFN-γ ELISpot response,[5],31 SFU
same,IFN-γ ELISpot response,[6],8 SFU
same,IFN-γ ELISpot response,[7],66.5 SFU
same,Significant response as percentage of maximal peptide SFU,[8],′′′ (41-70% = ′′′)
same,Significant response as percentage of maximal peptide SFU,"patient J, max peptide 196 SFU",′′′ (41-70% = ′′′)
same,Significant response as percentage of maximal peptide SFU,"patient K, max peptide 53 SFU",′′ (21-40% = ′′)
same,Significant response as percentage of maximal peptide SFU,"patient M, max peptide 48 SFU",′′′ (41-70% = ′′′)
same,IFN-γ ELISpot response,[9],5.5 SFU
same,IFN-γ ELISpot response,[10],41.5 SFU
same,Significant response as percentage of maximal peptide SFU,"patient P, max peptide 64 SFU",′′′ (41-70% = ′′′)
same,IFN-γ ELISpot response,[11],67.5 SFU
same,Significant response as percentage of maximal peptide SFU,"patient Q, max peptide 97 SFU",′′′ (41-70% = ′′′)
same,IFN-γ ELISpot response,[12],45 SFU
same,Significant response as percentage of maximal peptide SFU,"patient U, max peptide 81 SFU",′′′ (41-70% = ′′′)
same,IFN-γ ELISpot response,[13],30 SFU
same,Significant response as percentage of maximal peptide SFU,"patient V, max peptide 35 SFU",+ (>70% = +)
same,IFN-γ ELISpot response,[14],10.5 SFU
same,Significant response as percentage of maximal peptide SFU,"patient Y, max peptide 16 SFU",′′′ (41-70% = ′′′)
same,Significant response as percentage of maximal peptide SFU,"patient Z, max peptide 13 SFU",+ (>70% = +)
same,Significant response as percentage of maximal peptide SFU,"patient eight, max peptide 12 SFU",+ (>70% = +)
same,IFN-γ ELISpot response,[15],57 SFU
same,Significant response as percentage of maximal peptide SFU,[16],+ (>70% = +)
same,Significant response as percentage of maximal peptide SFU,"patient five, max peptide 48 SFU",+ (>70% = +)
same,IFN-γ ELISpot response,[17],40.5 SFU
same,Significant response as percentage of maximal peptide SFU,"patient one, max peptide 16.5 SFU",+ (>70% = +)
same,IFN-γ ELISpot response,[18],8 SFU
same,IFN-γ ELISpot response,"patient six, 3-5yrs, cut-off 10 SFU",13 SFU
same,Significant response as percentage of maximal peptide SFU,"patient six, max peptide 13 SFU",+ (>70% = +)
same,IFN-γ ELISpot response,[19],14 SFU
same,Significant response as percentage of maximal peptide SFU,[20],+ (>70% = +)
same,IFN-γ ELISpot response,[21],99.5 SFU
same,IFN-γ ELISpot response,[22],27 SFU
same,IFN-γ ELISpot response,[23],29 SFU
same,Significant response as percentage of maximal peptide SFU,"patient two, max peptide 60 SFU",′′′ (41-70% = ′′′)
GLERPWQEQPLPPQ,IFN-γ ELISpot response,[1],4 SFU
same,IFN-γ ELISpot response,[2],0 SFU
same,IFN-γ ELISpot response,[3],0 SFU
same,IFN-γ ELISpot response,[4],0 SFU
same,IFN-γ ELISpot response,[5],0 SFU
same,IFN-γ ELISpot response,[6],16 SFU
same,Significant response as percentage of maximal peptide SFU,"patient H, max peptide 17 SFU",+ (>70% = +)
same,IFN-γ ELISpot response,[7],1 SFU
same,IFN-γ ELISpot response,[9],0 SFU
same,IFN-γ ELISpot response,[10],7 SFU
same,IFN-γ ELISpot response,[11],22 SFU
same,Significant response as percentage of maximal peptide SFU,"patient Q, max peptide 97 SFU",′′ (21-40% = ′′)
same,IFN-γ ELISpot response,[12],1 SFU
same,IFN-γ ELISpot response,[13],7 SFU
same,IFN-γ ELISpot response,[14],9 SFU
same,IFN-γ ELISpot response,[15],1 SFU
same,IFN-γ ELISpot response,[17],6 SFU
same,IFN-γ ELISpot response,[18],11 SFU
same,Significant response as percentage of maximal peptide SFU,"patient seven, max peptide 27 SFU",′′′ (41-70% = ′′′)
same,IFN-γ ELISpot response,[19],5 SFU
same,IFN-γ ELISpot response,[21],3 SFU
same,IFN-γ ELISpot response,[22],2 SFU
same,IFN-γ ELISpot response,[23],1 SFU
QPFPQPEQPFPQS,Cross-reactive T cell response,"subject A, 11-17yrs",4 SFU
same,Significant response as a percentage of maximal peptide SFU,"subject D, 11-17yrs",′′′ (41-70% = ′′′)
same,Cross-reactive T cell response,"subject D, 11-17yrs",15 SFU
same,Significant response as a percentage of maximal peptide SFU,"subject E, 11-17yrs",′′ (21-40% = ′′)
same,Cross-reactive T cell response,"subject E, 11-17yrs",46 SFU
same,Significant response as a percentage of maximal peptide SFU,"subject F, 11-17yrs",′ (11-20% = ′)
same,Cross-reactive T cell response,"subject F, 11-17yrs",35 SFU
same,Cross-reactive T cell response,"subject G, 11-17yrs",5 SFU
same,Cross-reactive T cell response,subject H,4 SFU
same,Cross-reactive T cell response,subject I (3-5yrs/6-10yrs part),2 SFU
same,Significant response as a percentage of maximal peptide SFU,subject J,′′ (21-40% = ′′)
same,Cross-reactive T cell response,subject J (3-5yrs/6-10yrs part),57 SFU
same,Significant response as a percentage of maximal peptide SFU,subject K,′′ (21-40% = ′′)
same,Cross-reactive T cell response,subject K (3-5yrs/6-10yrs part),18 SFU
same,Cross-reactive T cell response,"subject P, 11-17yrs",13 SFU
same,Significant response as a percentage of maximal peptide SFU,"subject Q, 11-17yrs",′′′ (41-70% = ′′′)
same,Cross-reactive T cell response,"subject Q, 11-17yrs",55 SFU
same,Significant response as a percentage of maximal peptide SFU,"subject T, 11-17yrs",+ (>70% = +)
same,Cross-reactive T cell response,"subject T, 11-17yrs",70 SFU
same,Significant response as a percentage of maximal peptide SFU,"subject U, 11-17yrs",′′ (21-40% = ′′)
same,Cross-reactive T cell response,"subject U, 11-17yrs",27 SFU
same,Significant response as a percentage of maximal peptide SFU,subject V,+ (>70% = +)
same,Cross-reactive T cell response,subject V (3-5yrs/6-10yrs part),25 SFU
same,Cross-reactive T cell response,subject W (3-5yrs/6-10yrs part),6 SFU
same,Cross-reactive T cell response,subject Y (3-5yrs/6-10yrs part),4 SFU
same,Significant response as a percentage of maximal peptide SFU,subject five,′′′ (41-70% = ′′′)
same,Cross-reactive T cell response,subject five (3-5yrs/6-10yrs part),32 SFU
same,Cross-reactive T cell response,"subject nine, 11-17yrs",1 SFU
same,Significant response as a percentage of maximal peptide SFU,subject seven,′′′ (41-70% = ′′′)
same,Cross-reactive T cell response,subject seven (3-5yrs/6-10yrs part),11 SFU
same,Cross-reactive T cell response,subject six (3-5yrs/6-10yrs part),7 SFU
same,Significant response as a percentage of maximal peptide SFU,subject ten,+ (>70% = +)
same,Cross-reactive T cell response,subject ten (3-5yrs/6-10yrs part),12 SFU
same,Significant response as a percentage of maximal peptide SFU,subject two,′′′ (41-70% = ′′′)
same,Cross-reactive T cell response,subject two (3-5yrs/6-10yrs part),44 SFU
QFIQPEQPFPQQ,IFN-γ ELISpot response,[1],0 SFU
same,IFN-γ ELISpot response,[2],31 SFU
same,Significant response as percentage of maximal peptide SFU,"patient E, max peptide 224 SFU",′ (11-20% = ′)
same,IFN-γ ELISpot response,[3],28 SFU
same,Significant response as percentage of maximal peptide SFU,"patient F, max peptide 178 SFU",′ (11-20% = ′)
same,IFN-γ ELISpot response,[4],2 SFU
same,IFN-γ ELISpot response,[5],8 SFU
same,IFN-γ ELISpot response,[6],3 SFU
same,IFN-γ ELISpot response,[7],21 SFU
same,Significant response as percentage of maximal peptide SFU,[8],′′ (21-40% = ′′)
same,Significant response as percentage of maximal peptide SFU,"patient II, max peptide 15 SFU",+ (>70% = +)
same,Significant response as percentage of maximal peptide SFU,"patient J, max peptide 196 SFU",′ (11-20% = ′)
same,Significant response as percentage of maximal peptide SFU,"patient K, max peptide 53 SFU",′′ (21-40% = ′′)
same,IFN-γ ELISpot response,[9],6 SFU
same,IFN-γ ELISpot response,[10],8 SFU
same,IFN-γ ELISpot response,[11],25 SFU
same,Significant response as percentage of maximal peptide SFU,"patient Q, max peptide 97 SFU",′′ (21-40% = ′′)
same,IFN-γ ELISpot response,[12],13 SFU
same,Significant response as percentage of maximal peptide SFU,"patient U, max peptide 81 SFU",′ (11-20% = ′)
same,IFN-γ ELISpot response,[13],19 SFU
same,Significant response as percentage of maximal peptide SFU,"patient V, max peptide 35 SFU",′′′ (41-70% = ′′′)
same,IFN-γ ELISpot response,[14],3 SFU
same,IFN-γ ELISpot response,[15],0 SFU
same,IFN-γ ELISpot response,[17],6 SFU
same,IFN-γ ELISpot response,[18],8 SFU
same,IFN-γ ELISpot response,[19],6 SFU
same,IFN-γ ELISpot response,[21],30 SFU
same,IFN-γ ELISpot response,[22],6 SFU
same,IFN-γ ELISpot response,[23],7 SFU
PEQPFPEQPEQPF,IFN-γ ELISpot response,[1],2 SFU
same,IFN-γ ELISpot response,[2],14 SFU
same,Significant response as percentage of maximal peptide SFU,"patient E, max peptide 224 SFU",(6-10% = ^)
same,IFN-γ ELISpot response,[3],2 SFU
same,IFN-γ ELISpot response,[4],2 SFU
same,IFN-γ ELISpot response,[5],4 SFU
same,IFN-γ ELISpot response,[6],9 SFU
same,IFN-γ ELISpot response,[7],15 SFU
same,Significant response as percentage of maximal peptide SFU,[8],′ (11-20% = ′)
same,Significant response as percentage of maximal peptide SFU,"patient J, max peptide 196 SFU",′ (11-20% = ′)
same,Significant response as percentage of maximal peptide SFU,"patient K, max peptide 53 SFU",′′ (21-40% = ′′)
same,IFN-γ ELISpot response,[9],0 SFU
same,IFN-γ ELISpot response,[10],10 SFU
same,IFN-γ ELISpot response,[11],11 SFU
same,Significant response as percentage of maximal peptide SFU,"patient Q, max peptide 97 SFU",′ (11-20% = ′)
same,IFN-γ ELISpot response,[12],5 SFU
same,IFN-γ ELISpot response,[13],3 SFU
same,IFN-γ ELISpot response,[14],2 SFU
same,IFN-γ ELISpot response,[15],12 SFU
same,Significant response as percentage of maximal peptide SFU,[16],′′ (21-40% = ′′)
same,IFN-γ ELISpot response,[17],4 SFU
same,Significant response as percentage of maximal peptide SFU,"patient nine, max peptide 10 SFU",+ (>70% = +)
same,IFN-γ ELISpot response,[18],5 SFU
same,IFN-γ ELISpot response,[19],11 SFU
same,Significant response as percentage of maximal peptide SFU,[20],+ (>70% = +)
same,IFN-γ ELISpot response,[21],24 SFU
same,IFN-γ ELISpot response,[22],1 SFU
same,IFN-γ ELISpot response,[23],9 SFU
